From patent publication US20170319740A1, “Bioactive Wound Dressing and Teeth Coating Based on Morphogenetically Active Amorphous Calcium Polyphosphate” (NanotecMARIN GmbH, priority 2014, published 2017) come the findings set out here.

In test [1] the test system is MC3T3-E1 cells. Briefly: Nile Blue A staining of cell monolayers. Format: cell-based, mouse. The conditions noted are these: 72 h, controls stained in blue. Here is the method:
(§1) The mouse calvaria cells MC3T3-E1 cells (ATCC-CRL-2593; #99072810; Sigma) are cultivated in a-MEM (Gibco—Invitrogen, Darmstadt; Germany) containing 20% fetal calf serum (FCS; Gibco). In addition, the medium is supplemented with 2 mM L-glutamine, 1 mM Na-pyruvate and 50 μg/ml of gentamycin. […] After reaching 80% confluency, the cells are detached using trypsin/EDTA and then subcultured at a density of 5·10^3 cells/ml. The cells are seeded at a density of 5·10^3 cells/well. Medium/serum change is every 3 d.
(§2) Retinol is dissolved in ethanol (1 mg/ml) and then diluted in DMSO (dimethyl sulfoxide). Incubation is performed for 3 d.
The MC3T3-E1 cells are stained with Nile Blue A (Basic Blue 12, Nile blue sulfate; Sigma N0766) as described (Nakanishi T, Kato S. Impact of diabetes mellitus on myocardial lipid deposition: an autopsy study. Pathol Res Pract 2014; 210: 1018-1025). This staining reagent highlights in histological samples neutral lipids (triglycerides, cholesteryl esters, steroids) in pink, while acids (fatty acids, chromolipids, phospholipids) are stained in blue.

A further test deals with leptin. Briefly: RT-qPCR steady-state gene expression in MC3T3-E1 cells: leptin. The test is classed as cell-based, Mus musculus. The conditions noted are these: 3 d, GAPDH reference. Here is the method: (§3) As indicated, the following polyP preparations are added to the cells; […], et al. […] Retinol is dissolved in ethanol (1 mg/ml) and then diluted in DMSO (dimethyl sulfoxide). Incubation is performed for 3 d. In the indicated experiments, circular fiber mat samples (diameter of 15 mm) are inserted into each 24-well of the plates and seeded with MC3T3-E1 cells at a density of 5·10^3 cells/well. Then the assays are incubated for 3 d and subjected to microscopic as well as polymerase chain reaction analyses. The gene expression levels can be determined by applying the technique of reverse transcription-quantitative real-time polymerase chain reaction (RT-qPCR). […] Then the cells are harvested, their RNA is isolated and subjected to RT-qPCR. In the experiments described under Examples, the following primer pairs, matching with the respective mouse genes, are used: Fatty acid binding protein 4 (Mus musculus; accession number […]299] (SEQ ID NO: 1) and Rev: […]392] (SEQ ID NO: 2); product size 135 bp; leptin (M. musculus; […]2911] (SEQ ID NO: 3) and Rev: […]3019] (SEQ ID NO: 4); size 153 bp; and leptin receptor, transcript variant 2 (M. musculus; […]2592] (SEQ ID NO: 5) and Rev: […]2686] (SEQ ID NO: 6); size 139 bp. The GAPDH [glyceraldehyde 3-phosphate dehydrogenase (Mus GAPDH; NM_008084) is used as reference gene […]220] (SEQ ID NO: 7) and Rev: [NT]338 to nt316; size 139 bp] (SEQ ID NO: 8).

In test [2] the test system is fatty acid binding protein 4 (FABP4). The test is described as follows: RT-qPCR steady-state gene expression in MC3T3-E1 cells: FABP4. The test is classed as cell-based, Mus musculus. The conditions noted are these: 3 d, GAPDH reference. Here is the method: as §3
The subject of test [3] is MC3T3-E1 cells. The test is described as follows: XTT cell viability / cell proliferation assay. The test is classed as cell-based, mouse. Here is the method:
as §1, §2
Cell proliferation/cell viability can be determined by the colorimetric XTT method ([Na-3′[1-(phenylamino-carbonyl)-3,4-tetrazolium]-bis(4-methoxy-6-nitro) benzene sulfonic acid] using, for example, the “Cell Proliferation Kit II” (Roche). The absorbance is determined at […] and subtracted from the background values ([…]). In the experiments described in Examples, the viable cells have been determined after 72 h.

The subject of the next test is leptin receptor. Briefly: RT-qPCR steady-state gene expression in MC3T3-E1 cells: leptin receptor. The test is classed as cell-based, Mus musculus. The conditions noted are these: 3 d, GAPDH reference. Here is the method: as §3
The next test relates to ALP gene. Briefly: qRT-PCR of ALP expression in hMSC differentiating towards odontoblasts. Format: cell-based, human. As to conditions: 30 μg/mL, time not stated (1-7 d series), without polyP approximately 0.02. Here is the method: The human multipotent stromal cells (hMSC) differentiate into odontoblasts in the presence of conditioned medium from developing tooth germ cells; the conditioned medium is prepared as described (Huo N, et al. (2010) Differentiation of dermal multipotent cells into odontogenic lineage induced by embryonic and neonatal tooth germ cell-conditioned medium. Stem Cells Dev 19:93-104). The description of the cultivation procedure for the hMSCs has been published (Wang X H, et al. (2014) The marine sponge-derived inorganic polymers, biosilica and polyphosphate, as morphogenetically active matrices/scaffolds for differentiation of human multipotent stromal cells: Potential application in 3D printing and distraction osteogenesis. Marine Drugs 12:1131-1147). The human cells can be obtained, after approval from the responsible ethics committee, from bone marrow aspirations after informed consent of the donors. Incubation was performed in a humidified incubator at 37° C. and 5% CO2. The sixth passage is used for the studies. The cells are incubated in α-MEM (Biochrom), supplemented with 20% fetal calf serum (FCS; Gibco Invitrogen) as well as with 100 units/mL penicillin and […] streptomycin. In addition, 5% of conditioned medium is added to the assays. […]

A short description of test [4]: In vitro incubation of teeth, polyP coating / dentinal tubule resealing (light microscopy, SEM). On the set-up: species or system human. As to conditions: 10 mg/mL; 2 d incubation. Here is the method: In order to determine the efficacy of the aCa-polyP-MP to reseal the dentin layer and to check for the potency of the microparticles to occlude the dentinal tubules human teeth are used. Prior to use the teeth are mechanically cleaned from soft tissue, treated for 5 h in 3% Na-hypochlorite to remove tissue remains and then stored at 4° C. in a 100% relative humidity chamber.
Teeth specimens are submersed in saline (0.90% [w/v] NaCl) which contained, as mentioned in the text, either 10 mg/mL of aCa-polyP-MP or Na-polyP, stoichiometrically complexed with Ca^2+ (molar ratio of 2:1/phosphate monomer:Ca^2 [Müller W E G, et al. (2011) Inorganic polymeric phosphate/polyphosphate as an inducer of alkaline phosphatase and a modulator of intracellular Ca^2+ level in osteoblasts (SaOS-2 cells) in vitro. Acta Biomater 7:2661-2671]). Incubation is performed at 25° C. Then the samples are sliced by cutting 1-2 mm thick discs inwards to the pulp as described (Wang X H, et al. (2014) Enzyme-based biosilica and biocalcite: biomaterials for the future in regenerative medicine. Trends Biotechnol 32:441-447); where indicated, the dentin or enamel regions, as well as the cement layer, are included in the measurements. […]

For `CC1=C(/C=C/C(C)=C/C=C/C(C)=C/CO)C(C)(C)CCC1` [retinol, all-trans retinol], the “Nile Blue A staining colour of cells” value in the test with MC3T3-E1 cells [1] (3 μM retinol) is reported as “highlight in light/bright pink”. Besides, in the test on leptin (3 μM retinol), the “leptin steady-state expression versus untreated control” value is on record as “non-significant increase”. The “FABP4 steady-state expression versus untreated control” value in test [2] (3 μM retinol) is given as “non-significant increase”. Also, the “cell growth (XTT)” value in the test with MC3T3-E1 cells [3] (retinol 3 μM as single component, 72 h) is recorded as “does not affect cell growth significantly”. Moreover, the “leptin receptor steady-state expression versus untreated control” value in the test with leptin receptor (3 μM retinol) was “non-significant increase”.
With Na-polyphosphate, the “ALP expression level, ratio to GAPDH” value with ALP gene was determined as 0.53±0.01. Also, the “Nile Blue A staining colour of cells” value in the test with MC3T3-E1 cells [1] (3 μg/ml) is reported as “highlight in light/bright pink”. Also, in the test on leptin (3 μg/ml, control set to 1), the “leptin steady-state expression versus untreated control” value was “did not change significantly”. Further, the “FABP4 steady-state expression versus untreated control” value in test [2] (3 μg/ml, control set to 1) is listed as “did not change significantly”. Moreover, in the test with MC3T3-E1 cells [3] (72 h incubation, below a concentration of 3 μg/ml), the “number of cells (XTT)” value is listed as “no effect on the number of cells”. For the same compound, in test [4], the “additional (polyP) layer on top of the cement, light microscopy” value is “no additional layer was observed” and the “surface texture / roughness of treated teeth, light microscopy” value was “coarse texture”. The “leptin receptor steady-state expression versus untreated control” value with leptin receptor (3 μg/ml, control set to 1) is “did not change significantly”.
